Data on one molecule can be found in ChEMBL document CHEMBL2073967, “Characterisation of cerivastatin as a P-glycoprotein substrate: studies in P-glycoprotein-expressing cell monolayers and mdr1a/b knock-out mice” (Naunyn Schmiedebergs Arch Pharmacol, 2004).

In this data set the target is ATP-dependent translocase ABCB1 (Homo sapiens, UniProt P08183). The data set can be described thus: TP_TRANSPORTER: transepithelial transport in L-MDR1 cells. In kind it is functional, cell-based. The settings on record: pig.
ATP-dependent translocase ABCB1, sequence (P08183 whole entry): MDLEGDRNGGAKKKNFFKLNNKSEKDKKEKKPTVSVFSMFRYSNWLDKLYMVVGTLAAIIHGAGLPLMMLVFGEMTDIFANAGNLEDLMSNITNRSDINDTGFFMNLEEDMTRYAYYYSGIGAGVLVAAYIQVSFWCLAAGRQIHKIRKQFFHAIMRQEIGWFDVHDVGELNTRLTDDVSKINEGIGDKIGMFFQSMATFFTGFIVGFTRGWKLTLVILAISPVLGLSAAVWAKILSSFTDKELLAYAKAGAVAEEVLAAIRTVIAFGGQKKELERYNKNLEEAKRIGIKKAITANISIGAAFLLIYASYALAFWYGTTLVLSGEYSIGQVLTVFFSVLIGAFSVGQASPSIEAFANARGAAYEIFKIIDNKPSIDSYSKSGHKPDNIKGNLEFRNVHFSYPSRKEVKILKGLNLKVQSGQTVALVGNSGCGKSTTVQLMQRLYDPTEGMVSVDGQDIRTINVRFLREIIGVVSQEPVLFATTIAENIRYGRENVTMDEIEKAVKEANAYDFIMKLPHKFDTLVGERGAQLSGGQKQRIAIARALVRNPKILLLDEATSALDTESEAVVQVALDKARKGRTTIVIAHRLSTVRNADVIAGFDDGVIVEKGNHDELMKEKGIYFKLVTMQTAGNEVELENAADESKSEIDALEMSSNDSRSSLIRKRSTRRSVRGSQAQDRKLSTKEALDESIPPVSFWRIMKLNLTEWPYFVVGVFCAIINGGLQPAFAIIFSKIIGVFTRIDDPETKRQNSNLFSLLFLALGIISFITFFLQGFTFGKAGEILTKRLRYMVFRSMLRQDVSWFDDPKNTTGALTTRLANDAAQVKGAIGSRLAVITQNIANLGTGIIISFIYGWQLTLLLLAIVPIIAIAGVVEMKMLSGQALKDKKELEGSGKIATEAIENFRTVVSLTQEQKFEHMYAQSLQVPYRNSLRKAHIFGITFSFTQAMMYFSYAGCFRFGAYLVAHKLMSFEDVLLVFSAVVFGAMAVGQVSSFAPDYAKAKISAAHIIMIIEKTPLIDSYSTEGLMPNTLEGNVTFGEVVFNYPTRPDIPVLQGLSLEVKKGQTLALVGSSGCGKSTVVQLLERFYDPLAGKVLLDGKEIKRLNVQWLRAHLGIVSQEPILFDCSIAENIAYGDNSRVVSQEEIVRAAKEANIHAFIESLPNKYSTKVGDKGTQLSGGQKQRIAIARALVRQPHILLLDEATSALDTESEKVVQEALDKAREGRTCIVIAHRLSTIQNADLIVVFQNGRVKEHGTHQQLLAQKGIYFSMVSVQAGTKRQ

With `COCc1c(C(C)C)nc(C(C)C)c(/C=C/[C@@H](O)C[C@@H](O)CC(=O)O)c1-c1ccc(F)cc1` [CERIVASTATIN], the Activity result was “substrate [+]”.
